From patent US7566724B2, “Glycine derivative and use thereof” (Toray Industries, Inc., priority 2004, dated 2009)
pIC50: −log10 of the molar value. Counter-ions that a name gives are not always drawn. Like-named read-outs stand apart in the source and are kept apart here.

Tests used:
[1] = Pharmacokinetic Evaluation in Rats; format: in vivo; conditions: rat, male SD rats, administered orally or intravenously, plasma up to 8 hours, LC/MS/MS; for bioavailability: oral, read-out: BA(%) (bioavailability); for clearance: read-out: CLtot (total clearance) (converted)
Procedure: Each compound was dissolved at a concentration of 0.5 mg/ml in PBS or in PBS containing 10% PEG. The compound was administered orally or intravenously to male SD rats (7 to 9 weeks old). Blood was collected from the tail vein at time points up to 8 hours after the administration, and blood plasma was collected by centrifugation from each obtained blood. The blood plasma was pretreated by using the solid-phase extraction method, and the concentration of the compound was analyzed with LC/MS/MS (ESI negative mode).
As the Comparative Compound, 2-[4-((3,5-dichlorobenzensulfonylamino)methyl)benzoylamino]-5-(4-(methyl-pyrimidin-2-ylamino)phenyl)pento-4-ene acid (XXI) described in WO 99/26923 was used.
[“BA” in Table 17 means bioavailability, and “CLtot” means total clearance.]

Jurkat cells = test: Measurement of Inhibitory Effect on Leukocyte Functions (adhesion of Jurkat cells to ligand-expressing cells or ligand-immobilized plate); format: cell-based; conditions: Homo sapiens, 0.5 h, read-out: IC50 (adhesion of Jurkat cells)
Procedure: Jurkat cells which are a cell line originated from human acute T cell lymphoma were allowed to react with BCECF-AM at 37° C. for 20 minutes to fluorescently label the cells. The fluorescently labelled Jurkat cells were allowed to react with ligand-expressing cells or with a ligand-immobilized plate at 37° C. for 30 minutes. After removing non-adherent cells by washing, 1% NP40 was added to lyse the adherent cells, and fluorescence intensity was measured with Cytoflow 2300 (Millipore). From the obtained fluorescence intensity, the number of adherent cells was calculated. Each test compound was reacted with the Jurkat cells before the beginning of the adhesion reaction. In Table 18, the IC50 of each compound is shown.

[2] = fluorescently labelled Jurkat cells, ligand-expressing cells or ligand-immobilized plate, 37° C. 30 minutes

Structure (SMILES)	pIC50 (Jurkat cells; [2])	further results
CN(c1ccc(/C=C/CC(NC(=O)c2ccc(CNS(=O)(=O)c3cc(Cl)cc(Cl)c3)cc2)C(=O)O)cc1)c1ncccn1 (stereo not drawn) [Comparative Compound, 2-[4-((3,5-dichlorobenzensulfonylamino)methyl)benzoylamino]-5-(4-(methyl-pyrimidin-2-ylamino)phenyl)pento-4-ene acid, reference compound]		bioavailability [1]: 1.7%; clearance [1]: 21.4 mL/min/kg
CCOC1(c2ccc(/C=C/CC(NC(=O)c3c(Cl)cccc3Cl)C(=O)OC)cc2)CCOCC1 (stereo not drawn) [Example 5, (E)-2-(2,6-Dichlorobenzamido)-5-[4-(4-ethoxytetrahydropyran-4-yl)-phenyl]pent-4-enoic acid methyl ester]	7.00	
COCC1(c2ccc(/C=C/CC(NC(=O)c3c(Cl)cccc3Cl)C(=O)O)cc2)CCOCC1 (stereo not drawn) [Example 8, (E)-2-(2,6-Dichlorobenzamido)-5-[4-(tetrahydro-4-(methoxymethyl)-2H-pyran-4-yl)phenyl]pent-4-enoic acid sodium salt]	7.16	
COC1(c2ccc(/C=C/CC(NC(=O)c3c(Cl)cccc3Cl)C(=O)O)cc2)CCCOCC1 (stereo not drawn) [Example 10, (E)-2-(2,6-Dichlorobenzamido)-5-[4-(4-methoxyoxepan-4-yl)phenyl]pent-4-enoic acid sodium salt]	6.66	
O=C(NC(C/C=C/c1ccc(Oc2ncccn2)cc1)C(=O)O)c1c(Cl)cccc1Cl (stereo not drawn) [Example 12, (E)-2-(2,6-Dichlorobenzamido)-5-[4-(pyrimidin-2-yloxy)phenyl]pent-4-enoic acid]	6.66	
CCN(c1ccc(/C=C/CC(NC(=O)c2c(Cl)cccc2Cl)C(=O)O)cc1)c1ncccn1 (stereo not drawn) [Example 24, (E)-2-(2,6-Dichlorobenzamido)-5-[4-(ethyl-pyrimidin-2-ylamino)phenyl]pent-4-enoic acid]	6.66	bioavailability [1]: 42.3%; clearance [1]: 12.6 mL/min/kg
COCCN(c1ccc(/C=C/CC(NC(=O)c2c(Cl)cccc2Cl)C(=O)O)cc1)c1ncccn1 (stereo not drawn) [Example 26, (E)-2-(2,6-Dichlorobenzamido)-5-[4-((2-methoxyethyl)-pyrimidin-2-ylamino)phenyl]pent-4-enoic acid sodium salt]	7.44	
O=C(NC(C/C=C/c1ccc(N(Cc2ccc(O)cc2)c2ncccn2)cc1)C(=O)O)c1c(Cl)cccc1Cl (stereo not drawn) [Example 29, (E)-2-(2,6-Dichlorobenzamido)-5-[4-((4-hydroxy-benzyl)-pyrimidin-2-ylamino)phenyl]pent-4-enoic acid]	7.39	
N#CCCN(c1ccc(/C=C/CC(NC(=O)c2c(Cl)cccc2Cl)C(=O)O)cc1)c1ncccn1 (stereo not drawn) [Example 31, (E)-5-[4-((2-Cyano-ethyl)-pyrimidin-2-yl-amino)-phenyl]-2-(2,6-dichlorobenzamido)-pent-4-enoic acid sodium salt]	7.39	
CCCCN(c1ccc(/C=C/CC(NC(=O)c2c(Cl)cccc2Cl)C(=O)O)cc1)c1ncccn1 (stereo not drawn) [Example 37, (E)-5-(4-Butyl-pyrimidin-2-yl-amino)-phenyl]-2-(2,6-dichlorobenzamido)-pent-4-enoic acid sodium salt]		pIC50 (Jurkat cells; Jurkat): 6.80
O=C(NC(C/C=C/c1ccc(N(CC2CC2)c2ncccn2)cc1)C(=O)O)c1c(Cl)cccc1Cl (stereo not drawn) [Example 53, (E)-5-[4-(Cyclopropylmethyl-pyrimidin-2-ylamino)phenyl]-2-(2,6-dichlorobenzamido)pent-4-enoic acid sodium salt]		pIC50 (Jurkat cells; Jurkat): 6.92
CC(C)CN(c1ccc(/C=C/CC(NC(=O)c2c(Cl)cccc2Cl)C(=O)O)cc1)c1ncccn1 (stereo not drawn) [Example 55, (E)-2-(2,6-Dichlorobenzamido)-5-[4-(isobutyl-pyrimidin-2-ylamino)phenyl]pent-4-enoic acid sodium salt]		pIC50 (Jurkat cells; Jurkat): 6.38
COC(=O)C(C/C=C/c1ccc(N(CCC#N)c2ncccn2)cc1)NC(=O)c1c(F)cccc1F (stereo not drawn) [Example 70, (E)-5-[4-((2-Cyano-ethyl)-pyrimidin-2-yl-amino)-phenyl]-2-(2,6-difluorobenzamido)-pent-4-enoic acid methyl ester]		bioavailability [1]: 63.4%; clearance [1]: 8.87 mL/min/kg

Further lines, with some results ahead:

pIC50 (Jurkat cells; [2])	Structure (SMILES)	further results
7.06	COc1ccc(CN(c2ccc(/C=C/CC(NC(=O)c3c(Cl)cccc3Cl)C(=O)O)cc2)c2ncccn2)cc1 (stereo not drawn) [Example 35, (E)-2-(2,6-Dichlorobenzamido)-5-[4-((4-methoxy-benzyl)-pyrimidin-2-ylamino)phenyl]pent-4-enoic acid sodium salt]	
7.15	O=C(NC(C/C=C/c1ccc(N(Cc2cccnc2)c2ncccn2)cc1)C(=O)O)c1c(Cl)cccc1Cl (stereo not drawn) [Example 39, (E)-2-(2,6-Dichlorobenzamido)-5-[4-(pyridin-3-ylmethyl-pyrimidin-2-ylamino)phenyl]pent-4-enoic acid sodium salt]	
6.02	O=C(NC(C/C=C/c1ccc(N(Cc2cscn2)c2ncccn2)cc1)C(=O)O)c1c(Cl)cccc1Cl (stereo not drawn) [Example 41, (E)-2-(2,6-Dichlorobenzamido)-5-[4-(pyrimidin-2-yl-thiazol-4-ylmethyl-amino)phenyl]pent-4-enoic acid sodium salt]	
6.05	COc1cc(OC)nc(N(C)c2ccc(/C=C/CC(NC(=O)c3c(Cl)cccc3Cl)C(=O)O)cc2)n1 (stereo not drawn) [Example 45, (E)-2-(2,6-Dichlorobenzamido)-5-[4-((4,6-dimethoxy-pyrimidin-2-yl)-methyl-amino)phenyl]pent-4-enoic acid]	
6.03	O=C(NC(C/C=C/c1ccc(N(c2ccccc2)c2ncccn2)cc1)C(=O)O)c1c(Cl)cccc1Cl (stereo not drawn) [Example 47, (E)-2-(2,6-Dichlorobenzamido)-5-[4-(phenyl-pyrimidin-2-ylamino)phenyl]pent-4-enoic acid sodium salt]	
7.10	O=C(NC(C/C=C/c1ccc(N(c2ncccn2)C2CCOCC2)cc1)C(=O)O)c1c(Cl)cccc1Cl (stereo not drawn) [Example 49, (E)-2-(2,6-Dichlorobenzamido)-5-[4-(pyrimidin-2-yl-(tetrahydro-pyran-4-yl)-amino)phenyl]pent-4-enoic acid sodium salt]	
6.96	CCCN(c1ccc(/C=C/CC(NC(=O)c2c(Cl)cccc2Cl)C(=O)O)cc1)c1ncccn1 (stereo not drawn) [Example 57, (E)-2-(2,6-Dichlorobenzamido)-5-[4-(propyl-pyrimidin-2-ylamino)phenyl]pent-4-enoic acid]	
7.37	O=C(NC(C/C=C/c1ccc(N(Cc2ccncc2)c2ncccn2)cc1)C(=O)O)c1c(Cl)cccc1Cl (stereo not drawn) [Example 59, (E)-2-(2,6-Dichlorobenzamido)-5-[4-(pyridin-4-ylmethyl-pyrimidin-2-ylamino)phenyl]pent-4-enoic acid]	
7.48	O=C(NC(C/C=C/c1ccc(N(Cc2ccccn2)c2ncccn2)cc1)C(=O)O)c1c(Cl)cccc1Cl (stereo not drawn) [Example 61]	
6.28	Cc1cccc(C)c1C(=O)NC(C/C=C/c1ccc(N(C)c2ncccn2)cc1)C(=O)O (stereo not drawn) [Example 69, (E)-2-(2,6-Dimethylbenzamido)-5-[4-(methyl-pyrimidin-2-ylamino)phenyl]pent-4-enoic acid]	
